Experimental data taken from patent publication US7705016B2, “Regulation of food intake by modulation of long-chain fatty acyl-CoA levels in the hypothalamus” (Albert Einstein College of Medicine of Yeshiva University, priority 2003, dated 2010).
Entries after “also recorded” stand apart in the source; their conditions may differ.

Target: T1, hypothalamic CPT1 (Rattus norvegicus, UniProt P32198)
T1 sequence (P32198 1-773): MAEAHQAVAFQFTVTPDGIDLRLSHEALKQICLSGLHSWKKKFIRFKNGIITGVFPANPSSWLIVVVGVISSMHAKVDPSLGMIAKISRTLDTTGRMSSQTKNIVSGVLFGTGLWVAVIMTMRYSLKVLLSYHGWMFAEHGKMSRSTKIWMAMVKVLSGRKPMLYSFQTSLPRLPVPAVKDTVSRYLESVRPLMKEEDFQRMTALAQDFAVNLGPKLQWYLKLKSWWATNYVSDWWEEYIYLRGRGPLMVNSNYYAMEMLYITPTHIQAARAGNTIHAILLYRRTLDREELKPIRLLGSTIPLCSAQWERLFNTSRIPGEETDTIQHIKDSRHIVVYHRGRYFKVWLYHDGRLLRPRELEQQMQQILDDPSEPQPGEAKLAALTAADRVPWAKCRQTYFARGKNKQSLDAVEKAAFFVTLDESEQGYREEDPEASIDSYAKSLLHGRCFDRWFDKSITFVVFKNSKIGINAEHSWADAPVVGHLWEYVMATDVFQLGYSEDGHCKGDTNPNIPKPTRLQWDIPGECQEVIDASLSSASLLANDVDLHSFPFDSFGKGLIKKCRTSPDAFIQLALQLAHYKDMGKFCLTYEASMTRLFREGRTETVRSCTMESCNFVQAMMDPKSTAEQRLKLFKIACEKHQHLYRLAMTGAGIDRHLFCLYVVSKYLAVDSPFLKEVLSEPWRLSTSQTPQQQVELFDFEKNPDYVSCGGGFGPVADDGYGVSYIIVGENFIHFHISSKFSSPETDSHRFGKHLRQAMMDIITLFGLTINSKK
Test: Food intake after ICV bolus of CPT1 antagonists
Format: in vivo
Parameters: CPT1 activity was measured in the particulate fraction of protein extracts from animals treated with ICV control injections; from tissue; host or cells: hypothalamus (arcuate nucleus) of male Sprague-Dawley rats, in vivo or ex vivo
Conditions: for decrease in daily food intake: 24-48 h after single ICV administration, ST 1326 high dose; for change in food intake from baseline: ST 1326 high dose (25 pmoles); for effect on food intake / feeding behavior: single ICV injection
Procedure: Hypothalamic inhibition of CPT1 decreases food intake. First we examined whether central administration of molecular and pharmacological antagonists of CPT1 modulates feeding behavior in conscious rats (FIG. 3). […] Food intake was monitored in metabolic cages before and up to 72 h after the ICV injections (Obici et al., 2002a). […] The marked effect of ICV CPT1L-Ribo on food intake was significant when compared with either control vector or with an unrelated control ribozyme (FIG. 3c). […] The anorectic effect of central CPT1 inhibition lasted for at least 48 h following a single ICV administration. These decreases in food intake were significant compared with both baseline and vehicle/control (FIG. 3a-e). The changes from baseline induced by CPT1 inhibition were statistically significant at 24 h (−17.6±2.0 g and −12.4±3.9 g), and 48 h (−13.4±1.8 g and −7.8±3.8 g) following ICV administration of CP1L-Ribo and high dose ST 1326, respectively (FIGS. 3b and e). This represented a ˜50% decrease in daily food intake, which returned toward baseline values by 72 h.
Animal preparation for in vivo experiments. We studied ninety-three 10-week old male Sprague-Dawley rats (Charles River Breeding Laboratories, Wilmington, Mass.). Rats were housed in individual cages and subjected to a standard light-dark cycle. Three weeks prior to the in vivo studies, we placed a chronic catheter in the third cerebral ventricle by stereotaxic surgery (Obici et al., 2002a; Obici et al., 2001; Liu et al., 1998). One week before the pancreatic-insulin clamp protocols, we placed additional catheters in the right internal jugular and left carotid artery (Obici et al., 2001; Liu et al., 1998). All ICV solutions were dissolved in artificial cerebral spinal fluid (aCSF). Food intake was monitored daily.
Effect of central inhibition of CPT1 and food intake. We examined the effects of ICV CPT1L-Ribo and ST 1326 on food intake. Three-hours before the start of the dark cycle, CPT1L-Ribo or vector control, ST 1326 or ST 1340 was injected as a bolus via indwelling catheters implanted in the third cerebral ventricle. In the feeding studies, rats received a single bolus injection of 25 pmoles of ST1340 or two different doses (5 and 25 pmoles) of ST1326. Rats were adapted to the metabolic cages and their daily food intake had been constant (changes <10%) for a minimum of three consecutive days preceding the ICV injections. Food intake was continuously monitored for the following 72 h.

[1] = 24 h after single ICV administration
[2] = 48 h after single ICV administration

inhibition of daily food intake (5 pmoles single ICV injection) | food intake on day 3 compared to control group (25 pmoles (high dose) single ICV injection, day 3) | inhibition of daily food intake (25 pmoles single ICV injection) | Molecule | decrease in daily food intake [%] | change in food intake from baseline [1] [g] | change in food intake from baseline [2] [g] | effect on food intake / feeding behavior | average food intake (first night following ICV administration) [gr./day]
statistically significant on day 1 and 2 | significantly lowered food intake | statistically significant on day 1 and 2 | CCCCCCCCCCCCCCNC(=O)N[C@H](CC(=O)[O-])C[N+](C)(C)C [ST1326, (R)-N-(tetradecylcarbamoyl)-aminocarnitine] | ~50 | -12.4 ± 3.9 | -7.8 ± 3.8 | markedly inhibited food intake | –
– | – | – | CPT1L-Ribo: plasmid (pTarget, CMV promoter) expressing a hammerhead ribozyme that specifically cleaves rat CPT1L mRNA, complexed to PEI for ICV injection (DNA CUGUACCAAAGAGCUGUAGAGUCCGUGAGGACGAAACGCCGCUCACAAUG) | ~50 | -17.6 ± 2.0 | -13.4 ± 1.8 | significantly suppressed from day 1 to day 3; also recorded: rapid onset of anorexia | 13.0±1.9
